From patent publication US20230406851A1, “IMIDAZOPYRIDINE COMPOUNDS AND USES THEREOF” (priority 2022, published 2023) come the findings set out here.

The test system of test [1] is rat FCA 96 hr paw model of inflammatory pain (heat hyperalgesia). The test can be described thus: Heat hyperalgesia (Plantar Test) in rat FCA 96 hr paw model of inflammatory pain. It counts as in vivo. To be noted: oral dosing 0.3-1-3-10-20 μmol/kg, 96 h after FCA. The protocol: (§1) One of the compounds of the present invention was evaluated in an in vivo model of inflammatory pain.
(§2) Male Sprague-Dawley rats (Charles River, St-Constant, Qc, CAN) weighing 200-225 g were utilized for the animal experiment studies. The animals were group-housed in polycarbonate, ventilated cages (filter top) in a controlled environment room (12-h light/dark cycle, 20.5-23.5° C., relative humidity: 40-70%) with food (14% Protein Rodent Maintenance Diet, Harlan Teklad, Madisson, WI, USA) and water ad libidum.
(§3) Inflammation was induced by injection of a single 40 μl Freund's complete adjuvant (FCA) intra-plantar injection into the rat's left hindpaw. All experiments were conducted 96 h after FCA administration. […]
Heat hyperalgesia (Plantar Test) was assessed using a Paw Thermal Stimulator to apply a controlled heat to the plantar surface of the affected paw. […] The heat source and timer were then turned on simultaneously; when the animal withdrew the hind paw the number of seconds was recorded. […]
(§4) Satellite animals were used to monitor the free plasma concentration of example 15 at the doses and time points used in the nociceptive tests. Free plasma EC50 values in behavioral studies were determined from 4-point concentration-response curves using non-linear regression and a sigmoidal variable slope logistic model (Prism 4.03, GraphPad Software Inc., USA).

The test system of test [2] is rat FCA 96 hr paw model of inflammatory pain (mechanical hyperalgesia). The test can be described thus: Mechanical hyperalgesia (Ugo Basile analgesy meter) in rat FCA 96 hr paw model of inflammatory pain. It counts as in vivo. The following applies: oral dosing 0.3-1-3-10-20 μmol/kg, 96 h after FCA. On the procedure:
as §1, §2, §3
Mechanical hyperalgesia was assessed using the Ugo Basile analgesy meter (Ugo Basile, Comerio, Italy). […] The pressure required to elicit paw withdrawal was determined. […] Paw withdrawal thresholds were calculated as the mean of the two values. […]
as §4

On to `CNC(=O)c1cc(F)c(-c2nc3cc(C)ccn3c2C[C@H]2CN(C(=O)OC)CCO2)c(F)c1` [Example 15, (S)-methyl-2-((2-(2,6-difluoro-4-(methylcarbamoyl)phenyl)-7-methylimidazo[1,2-a]pyridin-3-yl)methyl)morpholine-4-carboxylate], for which the “reversal of heat hyperalgesia” value in test [1] is recorded as “free plasma concentration dependent reversal”. For the same compound, the EC50 in test [1] (free plasma concentration, read-out: potency (EC50 free plasma concentration) in reversing heat hyperalgesia) was 18 nM; in test [2] (free plasma concentration, read-out: potency (EC50 free plasma concentration) in reversing mechanical hyperalgesia), 87 nM. The “reversal of mechanical hyperalgesia” value in test [2] is listed as “free plasma concentration dependent reversal”.
